Source: PMC4792926, “G9a-mediated methylation of ERα links the PHF20/MOF histone acetyltransferase complex to hormonal gene expression” (Nature Communications, 2016)
“Also recorded” adds a separate entry of the source.

Tests used:
endogenous G9a = experiment: Global histone H3K9me2 western blot (endogenous G9a activity) in MCF-7 cells; format: cell-based, human; settings: 4 and 8 μM for 24 h
Description: (§1) Human MCF-7, T-47D, U2OS and HEK293T cells (ATCC) were cultured in DMEM (Cellgro) supplemented with 10% fetal bovine serum (FBS, Sigma). For G9a inhibitor treatment, BIX-01294 (Sigma) was added to the medium, at the indicated concentrations, 24 h before the cells were collected. For shRNA knockdown, 293T cells were co-transfected with pMD2.G and pPAX2 (Addgene) together with pLKO-shRNA constructs or a non-targeting pLKO-shRNA (pLKO-shCtrl). Viral supernatants were harvested after 48 h. For infections, MCF-7 or T-47D cells were incubated with viral supernatants in the presence of 8 μg ml^−1 polybrene. After 48 h, puromycin (2 μg ml^−1) was added to the DMEM. Cells were grown, with selection for 5–7 days to select for stable knockdown cells before oestrogen treatment. For oestrogen treatment, cells were starved in phenol red-free DMEM supplemented with 10% charcoal-stripped FBS (Sigma) for 3–4 days, and 10 nM 17β-estradiol (Sigma) or ethanol (vehicle) were added to the medium (3 or 6 h for gene expression studies, and 15 and 45 min for ChIP experiments) before the cells were collected.

MAGE-A2 = experiment: qPCR of MAGE-A2, a G9a-repressed gene, in MCF-7 cells; format: cell-based, human; settings: 4 and 8 μM for 24 h, mean +/- S.E.M. of two experiments
Description: as §1, with “For oestrogen treatment, cells were starved in phenol red-free DMEM supplemented with 10% charcoal-stripped FBS (Sigma) for 3–4 days, and 10 nM 17β-estradiol (Sigma) or ethanol (vehicle) were added to the medium (3 or 6 h for gene expression studies, and 15 and 45 min for ChIP experiments) before the cells were collected.” left out
Reverse transcription and real-time PCR were performed as described previously. mRNA was prepared using the RNeasy Plus kit (Qiagen) and reverse transcribed using the First Strand Synthesis kit (Invitrogen). Quantitative real-time RT–PCR (qPCR) was performed on an ABI 7500-FAST Sequence Detection System using the Power SYBR Green PCR Master Mix (Applied Biosystems). Gene expression was calculated following normalization to GAPDH levels using the comparative Ct (cycle threshold) method and is shown as ‘Fold' relative to the expression of each gene in the control cells without E2 treatment that was arbitrarily set as ‘1'. […]

[1] = test system: ERα target genes (GREB1, PR, TFF1); experiment: qPCR of E2-induced ERα target gene expression in MCF-7 cells; format: cell-based, human
Description: as §1
Reverse transcription and real-time PCR were performed as described previously. mRNA was prepared using the RNeasy Plus kit (Qiagen) and reverse transcribed using the First Strand Synthesis kit (Invitrogen). Quantitative real-time RT–PCR (qPCR) was performed on an ABI 7500-FAST Sequence Detection System using the Power SYBR Green PCR Master Mix (Applied Biosystems). Gene expression was calculated following normalization to GAPDH levels using the comparative Ct (cycle threshold) method and is shown as ‘Fold' relative to the expression of each gene in the control cells without E2 treatment that was arbitrarily set as ‘1'. The primer sequences used for RT–PCR are listed in Supplementary Table 5.

MCF-7 cells [2] = experiment: MCF-7 cell proliferation (cell counting); format: cell-based, human; settings: different doses; cell numbers counted for 6 days
Description: Human MCF-7, T-47D, U2OS and HEK293T cells (ATCC) were cultured in DMEM (Cellgro) supplemented with 10% fetal bovine serum (FBS, Sigma). For G9a inhibitor treatment, BIX-01294 (Sigma) was added to the medium, at the indicated concentrations, 24 h before the cells were collected. For shRNA knockdown, 293T cells were co-transfected with pMD2.G and pPAX2 (Addgene) together with pLKO-shRNA constructs or a non-targeting pLKO-shRNA (pLKO-shCtrl). Viral supernatants were harvested after 48 h. For infections, MCF-7 or T-47D cells were incubated with viral supernatants in the presence of 8 μg ml^−1 polybrene. After 48 h, puromycin (2 μg ml^−1) was added to the DMEM. […]
(a, b) Growth curves of control (shCtrl) and G9a knockdown (shG9a) MCF-7 cells. Cells from 6 wells were counted in triplicates every two days, for 8 days (a) or 6 days (b) after seeding.
(c, d) G9a is required for cell growth in colony formation assays. […] Colonies arising from control and G9 knockdown MCF-7 cells were counted two weeks after seeding (d)
(e) G9a depletion reduces the anchorage-independent growth of MCF-7 cells. […] After four weeks, colonies were counted. At least 5 fields of view were counted for each well.
(f) The catalytic activity of G9a is required for cell growth. MCF-7 cells treated with the indicated doses of BIX-01249 were counted 6 days after seeding. […]

MCF-7 cells [3] = experiment: Colony formation assay, MCF-7; format: cell-based, human
Description: MCF-7 cells treated with shRNAs or BIX-01294 were seeded in six-well plates (1,000 cells per well) and grown in DMEM plus 10% FBS at 37 °C for 10–14 days. For anchorage-independent cell growth assays, 4,000 MCF-7 cells were suspended in DMEM containing 0.4% agar and seeded into six-well plates pre-coated with a base layer of 0.6% agar and grown at 37 °C for 4 weeks. Cells were fixed, stained with 0.005% crystal violet blue and photographed. Colony numbers were counted using ImageJ software with size cutoff of 75 μm. Results were quantitated from three to six wells or three to five views of each well from three independent replicates.

PHF20–ERα interaction = experiment: Co-IP of ERα and PHF20 in HEK-293T cells; format: cell-based, human; settings: 24 h before co-IP; Flag-ERα and Myc-PHF20 co-transfected HEK-293T
Description: as §1
For immunoprecipitation (IP) experiments, each cell fraction was incubated with the anti-FLAG M2-conjugated agarose beads overnight at 4 °C. The beads were washed 3–6 times with cell lysis buffer, and the bound proteins were eluted in SDS buffer and analysed by western blot. […]

[4] = test system: G9a, PHF20 and ERα protein levels; experiment: Western blot of total G9a, PHF20 and ERα in whole cell extract, HEK-293T cells; format: cell-based, human; settings: 24 h; WCE western blot
Description: as §1

G9a = settings: cited from earlier work
Excerpt: Next, we sought to determine whether the methyltransferase activity of G9a is required for its co-activation of endogenous ERα target genes. […] (Supplementary Fig. 2a,b). Importantly, under these conditions, although a res ...

COc1cc2nc(N3CCCN(C)CC3)nc(NC3CCN(Cc4ccccc4)CC3)c2cc1OC [BIX-01294]
enzymatic activity of endogenous G9a (global H3K9 methylation levels) (endogenous G9a): effectively inhibited; also recorded: reduces global H3K9me2 levels
derepression of MAGE-A2 (MAGE-A2): derepression of MAGE-A2; also recorded: induces the derepression
E2-induced activation of GREB1 and PR under BIX-01294 ([1]; 4 or 8 μM BIX-01294, 10 nM E2 for 3 h, qPCR, two experiments): clearly impaired by BIX-01294 in a dose-dependent manner; also recorded: inhibits E2-induced activation of GREB1 and PR
residual E2-dependent response under BIX-01294 ([1]; BIX-01294-treated MCF-7 cells, E2): a residual E2 response was sufficient to maintain GREB1 gene expression; also recorded: there was still an E2-dependent response
E2-dependent gene activation under BIX-01294 ([1]; MCF-7, BIX-01294-treated (discussion)): greatly reduced E2-dependent gene activation
cell proliferation (MCF-7 cells [2]): inhibited cell proliferation in a dose-dependent manner
colony formation (MCF-7 cells [3]; 0.5 or 1 μM, 10–14 days, crystal violet): greatly suppressed colony formation
cell survival (MCF-7 cells [3]; indicated doses, MCF-7 colonies, at least three experiments): inhibits cell survival
PHF20–ERα interaction (PHF20–ERα interaction): markedly diminished the PHF20–ERα interaction; also recorded: diminishes the interaction between ERα and PHF20 in cells
total levels of G9a, PHF20 and ERα [4]: not affected
G9a inhibition selectivity (G9a): selective G9a inhibitor
